# Test results taken from patent US20120064090A1, “THERAPEUTIC AGENT FOR CANCER HAVING REDUCED SENSITIVITY TO MOLECULAR TARGET DRUG AND PHARMACEUTICAL COMPOSITION FOR ENHANCING SENSITIVITY TO MOLECULAR TARGET DRUG” (KRINGLE PHARMA INC., priority 2009, published 2012).
# Columns and labels:
# HCC827 [1] = experiment: Induction of gefitinib resistance by various growth factors; format: cell-based, human; settings: growth factor 20 ng/mL, gefitinib 0.3 or 1 μM, 72 hours, FIG. 3(b)
# Experimental: (§1) In the same manner as in the above (a), PC-9 or HCC827 was seeded at 2×10^3 cells/well on 96-well plates, and after 24-hour culture, gefitinib was added to the wells so that the final concentration might be 0.3 or 1 μM. HGF, EGF, TGF-α or IGF-I was further added to give a final concentration of 20 ng/mL and then culture was continued for 72 hours. Wells without gefitinib and wells into which a culture medium was added instead of the growth factors were prepared for this experiment. After 72-hour culture, the degree of cell growth was measured by the MTT method and the growth rate was calculated in the same manner as in the above (a).
# PC-9 [2] = experiment: as above; format: cell-based, human; settings: growth factor 20 ng/mL, gefitinib 0.3 or 1 μM, 72 hours, FIG. 3(a)
# Experimental: as §1
# H1975 [3] = experiment: Effects of SU11274 on H1975 with HGF-induced CL-387,785-resistance; format: cell-based, human; settings: CL-387,785 0.3 μM, HGF 50 ng/mL, antibody 2 μg/mL, NK4 0.3 μM, 72 hours, FIG. 12
# Experimental: H1975 was seeded at 2×10^3 cells/well on 96-well plates and cultured for 24 hours. […] The degree of cell growth was measured by the MTT method and the growth rate was calculated in the same manner as in the above (a).
# PC-9 [4] = experiment: Effects of SU11274 on PC-9 with HGF-induced gefitinib-resistance; format: cell-based, human; settings: HGF 20 ng/mL, gefitinib 0.3 μM, antibody 1 μg/mL, NK4 0.3 μM, SU11274 0.3 μM, 72 hours, FIG. 11
# Experimental: PC-9 was seeded at 2×10^3 cells/well on 96-well plates and cultured for 24 hours. […] After that, 50 μL of an MTT solution (2 mg/mL, manufactured by Sigma) was added and incubation was performed at 37° C. for 2 hours. The culture media were removed, and dark blue crystals were dissolved by adding 100 μL of DMSO. The absorbance was measured with a microplate reader MTP-120 (Corona Electric Co., Ltd.) at the detection and reference wavelengths of 550 nm and 630 nm, respectively. The growth rate was shown as a relative value based on an untreated control. Each experiment was performed in triplicate and repeated thrice independently.
# H1975 [5] = experiment: Effects of gefitinib or CL-387,785 on H1975, MTT growth rate; format: cell-based, human; settings: 0.01 to 10 μM, 72 hours, FIG. 8
# Experimental: After 80% confluent H1975 was stripped and collected, the cells were seeded at 2×10^3 cells/well on 96-well plates and cultured for 24 hours. After that, gefitinib or CL-387,785 was added to each well so that the final concentration might be set to the seven levels of 0.01 to 10 μM, and then culture was continued for 72 hours. After that, 50 μl, of an MTT solution (2 mg/mL, manufactured by Sigma) was added and incubation was performed at 37° C. for 2 hours. The culture media were removed, and dark blue crystals were dissolved by adding 100 μL of DMSO. The absorbance was measured with a microplate reader MTP-120 (Corona Electric Co., Ltd.) at the detection and reference wavelengths of 550 nm and 630 nm, respectively. The growth rate was shown as a relative value based on an untreated control. Each experiment was performed in triplicate and repeated thrice independently.
# [6] = tested on: tumor formed of PC-9 and MRC-5 cells; experiment: Xenograft tumor (PC-9 + MRC-5) transplanted into SCID mice; format: in vivo; settings: PC-9 + MRC-5 s.c., days 4 to 16, gefitinib 25 mg/kg/day oral, antibody 5 mg/kg/day i.p., NK4 9 mg/kg/day i.p., FIG. 6
# Experimental: SCID mice (female, 5 weeks old) were purchased from CLEA Japan.
# 100 μL of a cell suspension containing PC-9 (5×10^6 cells) and MRC-5 (5×10^6 cells) was subcutaneously inoculated from the back skin of each SCID mouse. Four days later, mice bearing a tumor exceeding 4 mm in diameter were randomly divided into 6 groups (5 mice per group) as shown in Table 1.
# In gefitinib-treated groups (groups 4, 5 and 6 in Table 1), gefitinib (25 mg/kg/day) was orally administered once daily in the morning for 13 days from 4 days to 16 days after cell inoculation. In gefitinib-non-treated groups (groups 1, 2 and 3 in Table 1), a water containing 1% Tween80 was orally administered once daily in a similar manner to the above. In anti-HGF neutralizing antibody-treated groups (groups 2 and 5 in Table 1), the anti-HGF neutralizing antibody (5 mg/kg/day) was intraperitoneally administered once daily immediately after gefitinib administration for 13 days from 4 days to 16 days after cell inoculation. In NK4-treated groups (groups 3 and 6 in Table 1), NK4 (9 mg/kg/day) was intraperitoneally administered in divided portions twice a day in the morning immediately after gefitinib administration and in the evening for 13 days from 4 days to 16 days after cell inoculation.
# The width and length of tumor were measured every other day, and the tumor area (width×length) was calculated. […]
# PC-9/mock = experiment: PC-9 transfected with vector without the HGF gene, MTT growth rate; format: cell-based, human; settings: gefitinib 0.3 μM, 72 hours, FIG. 4
# Experimental: (§2) An HGF expression vector was prepared according to the description in “Ueki T, Kaneda Y, Tsutsui H, et al. Hepatocyte growth factor gene therapy of liver cirrhosis in rats. Nature Medicine 5, 226-230 (1 Feb. 1999)”. On the day before transfection, PC-9 prepared in a culture medium without any antibiotics was seeded at 2×10^4 cells/400 μL on 24-well plates and then cultured for 24 hours. The HGF expression vector was transfected into the cells by use of Lipofectamine 2000 (1 μL) (PC-9/HGF). As a control, a vector without the HGF gene was similarly transfected into the cells (PC-9/mock). After 24-hour culture, the cells were washed with PBS. Then, 0.3 μM of gefitinib (final concentration), 2 μg/mL of the anti-human HGF neutralizing antibody (final concentration) and/or 2 μg/mL of the control IgG (final concentration) were added, or not added, and then culture was continued for 72 hours. After 72-hour culture, the degree of cell growth was measured by the MTT method and the growth rate was calculated in the same manner as in Example 1.
# PC-9/HGF = experiment: PC-9 transfected with HGF expression vector, MTT growth rate; format: cell-based, human; settings: gefitinib 0.3 μM, 72 hours, FIG. 4
# Experimental: as §2
# H1975 [7] = experiment: Induction of CL-387,785 resistance by HGF; format: cell-based, human; settings: HGF 50 ng/mL, CL-387,785 0.03 to 3 μM, 72 hours, FIG. 9
# Experimental: In the same manner as in the above (a), H1975 was seeded at 2×10^3 cells/well on 96-well plates. After 24-hour culture, CL-387,785 was added to the wells so that the final concentration might be set to the five levels of 0.03 to 3 μM. An HGF solution was further added to give a final concentration of 50 ng/mL, or was not added, and then culture was continued for 72 hours. The degree of cell growth was measured by the MTT method and the growth rate was calculated in the same manner as in the above (a).
# PC-9 [8] = experiment: Single culture of PC-9 with or without HGF, MTT growth rate; format: cell-based, human; settings: PC-9 single culture; HGF 50 ng/mL; gefitinib 0.3 μM; 72 hours; FIG. 5
# Experimental: In the case of single culture of PC-9, PC-9 was seeded in each well of 24-well plates at 8×10^3 cells/700 μL and then cultured for 24 hours. After that, 50 ng/mL of HGF (final concentration) was added or not added, 0.3 μM of gefitinib (final concentration) was added or not added, 2 μg/mL of the control IgG (final concentration) or 2 μg/mL of the anti-human HGF neutralizing antibody (final concentration) was added or not added, and then culture was continued for 72 hours. After 72-hour culture, the degree of cell growth was measured by the MTT method and the growth rate was calculated in the same manner as in Example 1.
# HCC827 [9] = experiment: Induction of gefitinib resistance by HGF, MTT growth rate; format: cell-based, human; settings: HGF 2 to 50 ng/mL, gefitinib 0.01 to 1 μM, 72-hour culture, FIG. 1(b)
# Experimental: (§3) PC-9 or HCC827 was seeded at 2×10^3 cells/well on 96-well plates and cultured for 24 hours. After that, gefitinib and HGF were added to the wells in combinations thereof at different concentrations. Specifically, gefitinib was added to each well so that the final concentration might be set to the five levels of 0.01 to 1 μM. Wells without gefitinib were also prepared for this experiment. An HGF solution was added to the wells so that the final concentration might be set to the five levels of 2 to 50 ng/mL. Wells without HGF were also prepared for this experiment. After 72-hour culture, 50 μL of an MTT solution (2 mg/mL, manufactured by Sigma) was added and incubation was performed at 37° C. for 2 hours. The culture media were removed, and dark blue crystals were dissolved by adding 100 μL of DMSO. The absorbance was measured with a microplate reader MTP-120 (Corona Electric Co., Ltd.) at the detection and reference wavelengths of 550 nm and 630 nm, respectively. The growth rate was shown as a relative value based on an untreated control. Each experiment was performed in triplicate and repeated thrice independently.
# PC-9 [10] = experiment: as above; format: cell-based, human; settings: HGF 2 to 50 ng/mL, gefitinib 0.01 to 1 μM, 72-hour culture, FIG. 1(a)
# Experimental: as §3
compound,measurement,setting,value
"EGF (NSDSECPLSHDGYCLHDGVCMYIEALDKYACNCVVGYIGERCQYRDLKWWELR; Epidermal growth factor; UniProt P01133 971-1023, looked up) [growth factor purchased from Invitrogen]",induction of gefitinib resistance by growth factor (growth rate),HCC827 [1],slightly induced gefitinib resistance
same,induction of gefitinib resistance by growth factor (growth rate),PC-9 [2],slightly induced gefitinib resistance
IGF-I,induction of gefitinib resistance by growth factor (growth rate),HCC827 [1],slightly induced gefitinib resistance
same,induction of gefitinib resistance by growth factor (growth rate),PC-9 [2],slightly induced gefitinib resistance
"Cc1[nH]c(/C=C2\C(=O)Nc3ccc(S(=O)(=O)N(C)c4cccc(Cl)c4)cc32)c(C)c1C(=O)N1CCN(C)CC1 [SU11274, reference compound]","inhibition of HGF-induced hyposensitivity of H1975 to CL-387,785",H1975 [3],significantly inhibited
same,inhibition of HGF-induced hyposensitivity of PC-9 to gefitinib,PC-9 [4],significantly inhibited
"CC#CC(=O)Nc1ccc2ncnc(Nc3cccc(Br)c3)c2c1 [CL-387,785]",sensitivity of H1975 to the drug (growth rate),H1975 [5],sensitive
TGF-α,induction of gefitinib resistance by growth factor (growth rate),HCC827 [1],slightly induced gefitinib resistance
same,induction of gefitinib resistance by growth factor (growth rate),PC-9 [2],slightly induced gefitinib resistance
COc1cc2ncnc(Nc3ccc(F)c(Cl)c3)c2cc1OCCCN1CCOCC1 [gefitinib],sensitivity of H1975 to the drug (growth rate),H1975 [5],resistant
same,tumor volume / tumor growth over time,[6],"increase in tumor volume was inhibited, but no significant regression was observed"
same,sensitivity of cells to gefitinib (growth rate),PC-9/mock,sensitive
same,sensitivity of cells to gefitinib (growth rate),PC-9/HGF,less sensitive
HGF,"effect of HGF on sensitivity of H1975 to CL-387,785",H1975 [7],"reduced the sensitivity of H1975 to CL-387,785"
same,induction of gefitinib resistance (hyposensitivity) of PC-9,PC-9 [8],induced gefitinib resistance
same,induction of gefitinib resistance by growth factor (growth rate),HCC827 [1],remarkable capability of inducing gefitinib resistance
same,induction of gefitinib resistance by growth factor (growth rate),PC-9 [2],remarkable capability of inducing gefitinib resistance
same,induction of gefitinib resistance (growth rate),HCC827 [9],induced gefitinib resistance of PC-9 and HCC827 in a concentration-dependent manner
same,induction of gefitinib resistance (growth rate),PC-9 [10],induced gefitinib resistance of PC-9 and HCC827 in a concentration-dependent manner
